According to patent publication US11827628B2, “Compositions and methods for inhibition of the JAK pathway” (Rigel Pharmaceuticals, Inc., priority 2005, dated 2023):

test system: up-regulation of ICAM-1 (CD54) by IFNγ in A549 lung epithelial cells; experiment: A549 Epithelial Line Stimulated with IFNγ (ICAM-1 surface expression, FACS); type: cell-based, human; conditions: A549 epithelial line stimulated with IFNγ; ICAM-1 expression by FACS; read-out: IC50, Example 43
Outline: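 ICAM-1 (CD54) flow cytometry on live-gated A549 cells, geometric mean versus dose giving EC50. Cells received IFNγ at 75 ng/mL for 24 h after a 1 h compound pre-treatment spanning 30 μM to 14 nM in medium with 5% FBS and 0.3% DMSO.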

| IC50 [µM] | Compound |
| --- | --- |
| 3.27 | Cc1cc(COc2ccc(Nc3nc(Nc4cc(C)c(Cl)c(S(N)(=O)=O)c4)ncc3F)cc2)no1 [Compound I-218, N2-(3-Aminosulfonyl-4-chloro-5-methylphenyl)-5-fluoro-N4-[4-(5-methylisoxazol-3-yl)methyleneoxyphenyl]-2,4-pyrimidinediamine] |
| 23.6 | COc1cc(Nc2ncc(F)c(Nc3ccc(CC#N)cc3)n2)ccc1S(N)(=O)=O [III-9, N2-(4-Aminosulfonyl-3-methoxy)phenyl-N4-(4-cyanomethyl)phenyl-5-fluoro-2,4-pyrimidinediamine] |
| 7.24 | N#CCCc1ccc(Nc2nc(Nc3ccc(F)c(S(N)(=O)=O)c3)ncc2F)cc1 [III-16, N2-(3-Aminosulfonyl-4-fluorophenyl)-N4-[4-(cyanoethylene)phenyl]-5-fluoro-2,4-pyrimidinediamine] |
| 4.23 | Cc1cc(Nc2nc(Nc3cccc(S(N)(=O)=O)c3)ncc2F)cc(C)c1OCC#N [Compound I-26, N2-(3-Aminosulfonyl)phenyl-N4-(4-cyanomethoxy-3,5-dimethyl)phenyl-5-fluoro-2,4-pyrimidinediamine] |
| 2.35 | N#CCOc1ccc(Nc2nc(Nc3cccc(S(N)(=O)=O)c3)ncc2F)cc1 [Compound I-17, N2-(3-Aminosulfonyl)phenyl-N4-(4-cyanomethoxy)phenyl-5-fluoro-2,4-pyrimidinediamine] |
| 5.5 | COc1cc(Nc2ncc(F)c(Nc3cc(C)c(OCC#N)c(C)c3)n2)ccc1S(N)(=O)=O [Compound I-32, N2-(4-Aminosulfonyl-3-methoxy)phenyl-N4-(4-cyanomethoxy-3,5-dimethyl)phenyl-5-fluoro-2,4-pyrimidinediamine] |
| 9.09 | Cc1cc(COc2ccc(Nc3nc(Nc4cc(Cl)c(C)c(S(N)(=O)=O)c4)ncc3F)cc2F)no1 [Compound I-223, N2-(3-Aminosulfonyl-5-chloro-4-methylphenyl)-5-fluoro-N4-[3-fluoro-4-(5-methylisoxazol-3-yl)methyleneoxyphenyl]-2,4-pyrimidinediamine] |
| 4.08 | Cc1noc(COc2ccc(Nc3nc(Nc4cc(C)c(Cl)c(S(N)(=O)=O)c4)ncc3F)cc2)n1 [Compound I-265, N2-(3-Aminosulfonyl-4-chloro-5-methylphenyl)-5-fluoro-N4-[4-(3-methyl-1,2,4-oxadiazol-5-yl)methyleneoxyphenyl]-2,4-pyrimidinediamine] |
| 7.16 | Cc1cc(COc2ccc(Nc3nc(Nc4ccc(C)c(S(N)(=O)=O)c4)ncc3F)cc2)no1 [Compound I-219, N2-(3-Aminosulfonyl-4-methylphenyl)-5-fluoro-N4-[4-(5-methylisoxazol-3-yl)methyleneoxyphenyl]-2,4-pyrimidinediamine] |
| 24.9 | CN1CCN(S(=O)(=O)c2cccc(Nc3ncc(F)c(Nc4ccc(OCC#N)cc4)n3)c2)CC1 [Compound I-19, N4-(4-Cyanomethoxy)phenyl-5-fluoro-N2-[3-(4-methylpiperazin-1-yl)sulfonyl]phenyl-2,4-pyrimidinediamine] |
| 8.09 | Cc1nc(COc2ccc(Nc3nc(Nc4cccc(S(N)(=O)=O)c4)ncc3F)cc2)no1 [Compound I-276, N2-(3-Aminosulfonyl)phenyl-5-fluoro-N4-[4-(5-methyl-1,2,4-oxadiazol-3-yl)methoxy]phenyl-2,4-pyrimidinediamine] |
| 3.68 | 5-Fluoro-N4-[4-(3-methyl-1,2,4-oxadiazol-3-yl)methyleneoxyphenyl]-N2-[(3-N-propanamido)sulfonylphenyl)]-2,4-pyrimidinediamine [Compound I-262] |
| 3.08 | Cc1noc(COc2ccc(Nc3nc(Nc4cccc(S(=O)(=O)NCc5oc(=O)oc5C)c4)ncc3F)cc2)n1 [Compound I-257, N2-{3-[(N-5-Methyl-1,3-dioxolene-2-one-4-yl)methylene]aminosulfonylphenyl}-5-fluoro-N4-[4-(3-methyl-1,2,4-oxadiazol-5-yl)methyleneoxyphenyl]-2,4-pyrimidinediamine] |
